Source: patent US20160340322A1 (NISSAN CHEMICAL INDUSTRIES, LTD., priority 2013, published 2016)

Molecular target: T1, Human T-type calcium channel (Cav 3.2) (Homo sapiens, UniProt O95180)
T1 construct: Edward Perez-Reyes, University of Virginia, USA; host or cells: HEK293
Test: Calcium Influx Inhibition Assay
Format: cell-based
Settings: human T-type calcium channel (Cav 3.2) expressing HEK293 cells; FLIPR Calcium 4 fluorescence; 30 min compound incubation; read-out: T-type calcium channel inhibition concentration IC50
Experimental: 1. Calcium Influx Inhibition Assay Human T-type calcium channel (Cav 3.2) expressing HEK293 cells were introduced from Prof. Edward Perez-Reyes, University of Virginia, USA. The calcium-sensitive fluorescent dye used was FLIPR Calcium 4 Assay Kit (Molecular Devices). To a black 96-well plate with a clear bottom coated with type I collagen, the human T-type calcium channel (Cav 3.2) expressing HEK293 cells were seeded and cultured overnight, and the culture medium was removed. A solution of the calcium-sensitive fluorescent dye was added, and the resultant plate was incubated at 37° C. in an atmosphere of 5% carbon dioxide for 30 minutes. To the plate, a diluted solution of a compound was added, and subjected to further incubation at 37° C. in an atmosphere of 5% carbon dioxide for 30 minutes. While fluorescence was continuously analyzed from the bottom with a FlexStation 3 (Molecular Devices), a calcium solution was added. […] Based on the rise value in the fluorescence from the base line, the inhibition percentage was calculated. The logarithms of compound concentrations were plotted with respect to the inhibition activities to obtain an IC50 value.

T1 sequence (O95180 whole entry): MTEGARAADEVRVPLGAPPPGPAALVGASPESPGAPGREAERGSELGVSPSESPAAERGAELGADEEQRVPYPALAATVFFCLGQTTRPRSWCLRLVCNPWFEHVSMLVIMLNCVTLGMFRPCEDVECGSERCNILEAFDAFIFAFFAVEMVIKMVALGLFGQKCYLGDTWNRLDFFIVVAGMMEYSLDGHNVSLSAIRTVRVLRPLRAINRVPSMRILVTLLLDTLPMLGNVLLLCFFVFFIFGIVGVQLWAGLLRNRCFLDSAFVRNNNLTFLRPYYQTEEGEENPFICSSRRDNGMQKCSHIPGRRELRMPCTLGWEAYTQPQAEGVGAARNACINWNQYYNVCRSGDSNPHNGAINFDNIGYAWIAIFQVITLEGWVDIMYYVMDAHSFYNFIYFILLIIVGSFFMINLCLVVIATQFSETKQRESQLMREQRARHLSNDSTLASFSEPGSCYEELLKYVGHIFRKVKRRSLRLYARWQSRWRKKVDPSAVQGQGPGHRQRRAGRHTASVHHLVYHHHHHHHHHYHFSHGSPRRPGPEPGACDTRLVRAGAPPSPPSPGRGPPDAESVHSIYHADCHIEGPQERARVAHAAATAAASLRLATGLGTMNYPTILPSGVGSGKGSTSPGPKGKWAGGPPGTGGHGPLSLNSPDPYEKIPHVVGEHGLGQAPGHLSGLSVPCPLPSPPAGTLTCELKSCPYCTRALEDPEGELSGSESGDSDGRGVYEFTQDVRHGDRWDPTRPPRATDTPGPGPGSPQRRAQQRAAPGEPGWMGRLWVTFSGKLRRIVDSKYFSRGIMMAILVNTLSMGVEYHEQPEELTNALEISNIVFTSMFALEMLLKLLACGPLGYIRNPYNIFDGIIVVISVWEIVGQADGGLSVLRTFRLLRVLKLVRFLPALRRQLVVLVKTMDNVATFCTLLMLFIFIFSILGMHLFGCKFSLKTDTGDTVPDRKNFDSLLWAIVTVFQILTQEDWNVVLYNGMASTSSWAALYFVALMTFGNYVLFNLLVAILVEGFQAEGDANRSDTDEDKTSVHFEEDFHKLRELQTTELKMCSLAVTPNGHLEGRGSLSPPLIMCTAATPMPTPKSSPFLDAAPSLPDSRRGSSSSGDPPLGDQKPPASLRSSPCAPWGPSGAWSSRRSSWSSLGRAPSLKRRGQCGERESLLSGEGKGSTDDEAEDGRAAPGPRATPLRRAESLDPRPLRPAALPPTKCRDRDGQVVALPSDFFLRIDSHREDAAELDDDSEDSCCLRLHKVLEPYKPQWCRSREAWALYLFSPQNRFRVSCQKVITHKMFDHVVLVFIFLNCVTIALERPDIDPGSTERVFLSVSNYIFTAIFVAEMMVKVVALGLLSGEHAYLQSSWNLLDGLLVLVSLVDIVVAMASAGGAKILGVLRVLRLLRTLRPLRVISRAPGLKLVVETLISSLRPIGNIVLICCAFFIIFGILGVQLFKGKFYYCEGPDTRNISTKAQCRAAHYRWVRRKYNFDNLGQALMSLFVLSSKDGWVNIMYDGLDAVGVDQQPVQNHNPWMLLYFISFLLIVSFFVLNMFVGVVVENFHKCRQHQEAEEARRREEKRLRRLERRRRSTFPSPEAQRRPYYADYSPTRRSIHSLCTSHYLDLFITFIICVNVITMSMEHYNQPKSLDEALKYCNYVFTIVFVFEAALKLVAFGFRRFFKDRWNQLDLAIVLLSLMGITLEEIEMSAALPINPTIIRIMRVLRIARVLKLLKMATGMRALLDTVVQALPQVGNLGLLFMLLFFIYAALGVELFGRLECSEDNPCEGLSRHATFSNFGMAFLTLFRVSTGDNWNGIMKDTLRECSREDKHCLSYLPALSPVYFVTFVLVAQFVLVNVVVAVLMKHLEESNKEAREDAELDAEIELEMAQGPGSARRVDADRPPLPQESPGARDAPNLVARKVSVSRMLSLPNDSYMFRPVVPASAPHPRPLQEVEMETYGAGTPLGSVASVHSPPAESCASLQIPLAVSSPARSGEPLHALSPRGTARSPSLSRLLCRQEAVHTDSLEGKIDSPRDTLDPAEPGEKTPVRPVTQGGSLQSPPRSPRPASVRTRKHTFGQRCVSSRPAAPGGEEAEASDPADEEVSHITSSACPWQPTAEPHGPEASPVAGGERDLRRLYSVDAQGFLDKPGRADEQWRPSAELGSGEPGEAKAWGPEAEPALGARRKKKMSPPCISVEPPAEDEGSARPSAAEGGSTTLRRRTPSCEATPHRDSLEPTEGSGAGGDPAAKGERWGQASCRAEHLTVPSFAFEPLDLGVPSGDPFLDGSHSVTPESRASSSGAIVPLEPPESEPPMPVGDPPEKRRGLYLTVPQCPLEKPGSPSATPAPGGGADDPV

| Structure (SMILES) | IC50 [µM] |
| --- | --- |
| O=c1nc(N2Cc3ccc(OC(F)F)cc3C(O)C2)cnn1Cc1ccc(C(F)(F)F)s1 (stereo not shown) | 0.064 |
| O=c1nc(N2CCN(c3ccc(F)cc3)CC2)cnn1Cc1ccc(Cl)cc1 [Synthesis Example 1, 2-(4-Chlorobenzyl)-5-[4-(4-fluorophenyl)piperazin-1-yl]-1,2,4-triazin-3(2H)-one] | 0.22 |
| CCCCCCOc1ccc(Cn2ncc(N3CCN(c4ccc(F)cc4)CC3)nc2=O)cc1 [Synthesis Example 2, 5-[4-(4-Fluorophenyl)piperazin-1-yl]-2-[4-(hexyloxy)benzyl]-1,2,4-triazin-3(2H)-one] | 0.038 |
| O=c1nc(N2CCN(c3ccc(F)cc3)CC2)cnn1Cc1ccc(OCc2ccc(Cl)cc2)cc1 [Synthesis Example 3, 2-{4-[(4-Chlorobenzyl)oxy]benzyl}-5-[4-(4-fluorophenyl)piperazin-1-yl]-1,2,4-triazin-3(2H)-one] | 0.2 |
| O=c1nc(N2CCN(c3ccc(F)cc3)CC2)cnn1Cc1ccc(OCc2ccc(F)cc2)cc1 [Synthesis Example 4, 2-{4-[(4-Fluorobenzyl)oxy]benzyl}-5-[4-(4-fluorophenyl)piperazin-1-yl]-1,2,4-triazin-3(2H)-one] | 0.035 |
| O=c1nc(N2CCN(c3ccc(F)cc3)CC2)cnn1Cc1ccc(C(F)(F)F)s1 [Synthesis Example 5, 5-[4-(4-Fluorophenyl)piperazin-1-yl]-2-{[5-(trifluoromethyl)thiophen-2-yl]methyl}-1,2,4-triazin-3(2H)-one] | 0.027 |
| O=c1nc(N2CC=C(c3ccc(F)cc3)CC2)cnn1Cc1ccc(C(F)(F)F)s1 [Synthesis Example 6, 5-[4-(4-Fluorophenyl)-5,6-dihydropyridine-1(2H)-yl]-2-{[5-(trifluoromethyl)thiophen-2-yl]methyl}-1,2,4-triazin-3(2H)-one] | 0.024 |
| O=c1nc(N2CC=C(c3ccc(F)cc3)[C@@H](O)C2)cnn1Cc1ccc(C(F)(F)F)s1 [Synthesis Example 7, (R)-5-[4-(4-Fluorophenyl)-5-hydroxy-5,6-dihydropyridin-1(2H)-yl]-2-{[5-(trifluoromethyl)thiophene-2-yl]methyl}-1,2,4-triazin-3(2H)-one] | 0.006 |
| Cc1ccc(N2CCN(c3cnn(Cc4ccc(C(F)(F)F)s4)c(=O)n3)CC2)nc1 [Synthesis Example 8, 5-[4-(5-methylpyridin-2-yl)piperazin-1-yl]-2-{[5-(trifluoromethyl)thiophene-2-yl]methyl}-1,2,4-triazin-3(2H)-one] | 0.21 |
| O=c1nc(N2CCc3c([nH]c4cc(F)ccc34)C2)cnn1Cc1ccc(C(F)(F)F)s1 [Synthesis Example 9, 5-(7-Fluoro-3,4-dihydro-1H-pyrido[3,4-b]indol-2(9H)-yl)-2-{[5-(trifluoromethyl)thiophen-2-yl]methyl}-1,2,4-triazin-3(2H)-one] | 0.017 |
| O=c1nc(N2CCN(c3ccc(F)cc3)CC2)cnn1Cc1cnc(C(F)(F)F)s1 [Synthesis Example 10, 5-[4-(4-Fluorophenyl)piperazin-1-yl]-2-{[2-(trifluoromethyl)thiazol-5-yl]methyl}-1,2,4-triazin-3(2H)-one] | 0.49 |
| O=c1nc(N2CC=C(c3ccc(F)cc3)[C@@H](O)C2)cnn1Cc1cnc(C(F)(F)F)s1 [Synthesis Example 11, (R)-5-[4-(4-Fluorophenyl)-5-hydroxy-5,6-dihydropyridin-1(2H)-yl]-2-{[2-(trifluoromethyl)thiazol-5-yl]methyl}-1,2,4-triazin-3(2H)-one] | 0.03 |
| Cc1cc(C2=CCN(c3cnn(Cc4cnc(C(F)(F)F)s4)c(=O)n3)C[C@@H]2O)cs1 [Synthesis Example 12, (R)-5-[5-Hydroxy-4-(5-methylthiophen-3-yl)-5,6-dihydropyridin-1(2H)-yl]-2-{[2-(trifluoromethyl)thiazol-5-yl]methyl}-1,2,4-triazin-3(2H)-one] | 0.026 |
| Cc1ccc(N2CCN(c3cnn(Cc4cnc(C(F)(F)F)s4)c(=O)n3)CC2)nc1 [Synthesis Example 13, 5-[4-(5-Methylpyridin-2-yl)piperazin-1-yl]-2-{[2-(trifluoromethyl)thiazol-5-yl]methyl}-1,2,4-triazine-3(2H)-one] | 6.1 |
| O=c1nc(N2CCc3c([nH]c4cc(F)ccc34)C2)cnn1Cc1cnc(C(F)(F)F)s1 [Synthesis Example 14, 5-(7-Fluoro-3,4-dihydro-1H-pyrido[3,4-b]indol-2(9H)-yl)-2-{[2-(trifluoromethyl)thiazol-5-yl]methyl}-1,2,4-triazin-3(2H)-one] | 0.039 |
| Cc1cc(C2=CCN(c3cnn(Cc4ccc(C(F)(F)F)s4)c(=O)n3)C[C@@H]2O)cs1 [Synthesis Example 15, (R)-5-[5-Hydroxy-4-(5-methylthiophen-3-yl)-5,6-dihydropyridin-1(2H)-yl]-2-{[5-(trifluoromethyl)thiophen-2-yl]methyl}-1,2,4-triazin-3(2H)-one] | 0.001 |

| Structure (SMILES) | IC50 [µM] |
| --- | --- |
| CCOc1ccc2c(c1)C(O)CN(c1cnn(Cc3ccc(C(F)(F)F)s3)c(=O)n1)C2 (stereo not shown) [Synthesis Example 16] | 0.18 |
| Cc1csc(C2=CCN(c3cnn(Cc4cnc(C(F)(F)F)s4)c(=O)n3)C[C@@H]2O)c1 [Synthesis Example 17] | 0.2 |
| CCOc1ccc2c(c1)C(O)CN(c1cnn(Cc3cnc(C(F)(F)F)s3)c(=O)n1)C2 (stereo not shown) [Synthesis Example 18, 5-[6-Ethoxy-4-hydroxy-3,4-dihydroisoquinolin-2(1H)-yl]-2-{[2-(trifluoromethyl)thiazol-5-yl]methyl}-1,2,4-triazin-3(2H)-one] | 2.9 |
| COc1ccc2c(c1)CCN(c1cnn(Cc3cnc(C(F)(F)F)s3)c(=O)n1)C2C (stereo not shown) [Synthesis Example 19] | 2.2 |
| O=c1nc(N2CCN(c3ccc(Cl)cc3)CC2)cnn1Cc1cnc(C(F)(F)F)s1 [Synthesis Example 20, 5-[4-(4-Chlorophenyl)piperazin-1-yl]-2-{[2-(trifluoromethyl)thiazol-5-yl]methyl}-1,2,4-triazin-3(2H)-one] | 0.19 |
| O=c1nc(N2CCN(c3ccc(F)c(Cl)c3)CC2)cnn1Cc1cnc(C(F)(F)F)s1 [Synthesis Example 21, 5-[4-(3-Chloro-4-fluorophenyl)piperazin-1-yl]-2-{[2-(trifluoromethyl)thiazol-5-yl]methyl}-1,2,4-triazin-3(2H)-one] | 0.23 |
| O=c1nc(N2CC=C(c3ccc(F)cc3)C(F)C2)cnn1Cc1cnc(C(F)(F)F)s1 (stereo not shown) [Synthesis Example 22, 5-[5-Fluoro-4-(4-fluorophenyl)-5,6-dihydropyridin-(2H)-yl]-2-{[2-(trifluoromethyl)thiazol-5-yl]methyl}-1,2,4-triazin-3(2H)-one] | 0.12 |
| Cc1cc(N2CCN(c3cnn(Cc4cnc(C(F)(F)F)s4)c(=O)n3)CC2)cs1 [Synthesis Example 23, 5-[4-(5-Methylthiophen-3-yl)piperazin-1-yl]-2-{[2-(trifluoromethyl)thiazol-5-yl]methyl}-1,2,4-triazin-3(2H)-one] | 0.67 |
| Cn1cc(C2=CCN(c3cnn(Cc4cnc(C(F)(F)F)s4)c(=O)n3)C[C@@H]2O)cn1 [Synthesis Example 24, (R)-5-[5-Hydroxy-4-(1-methyl-1H-pyrazol-4-yl)-5,6-dihydropyridin-1(2H)-yl]-2-{[2-(trifluoromethyl)thiazol-5-yl]methyl}-1,2,4-triazin-3(2H)-one] | 4.9 |
| O=c1nc(N2Cc3ccc(O)cc3C(O)C2)cnn1Cc1ccc(C(F)(F)F)s1 (stereo not shown) [Synthesis Example 25, 5-[4,6-Dihydroxy-3,4-dihydroisoquinolin-2(1H)-yl]-2-{[5-(trifluoromethyl)thiophen-2-yl]methyl}-1,2,4-triazin-3(2H)-one] | 1.8 |
| O=c1nc(N2CC=C(c3ccc(F)cc3)[C@@H](O)C2)cnn1Cc1ccc(C(F)(F)F)o1 [Synthesis Example 27, (R)-5-[4-(4-Fluorophenyl)-5-hydroxy-5,6-dihydropyridin-1(2H)-yl]-2-{[5-(trifluoromethyl)furan-2-yl]methyl}-1,2,4-triazin-3(2H)-one] | 0.13 |
| O=c1nc(N2CC=C(c3ccc(F)cc3)[C@@H](O)C2)cnn1Cc1ccc(OC(F)F)nc1 [Synthesis Example 28, (R)-2-{[6-(Difluoromethoxy)pyridin-3-yl]methyl}-5-[4-(4-fluorophenyl)-5-hydroxy-5,6-dihydropyridin-1(2H)-yl]-1,2,4-triazin-3(2H)-one] | 0.094 |
| COc1nc(C2=CCN(c3cnn(Cc4ccc(C(F)(F)F)s4)c(=O)n3)C[C@@H]2O)ccc1Cl [Synthesis Example 29, (R)-5-[5-Chloro-5′-hydroxy-6-methoxy-5′,6′-dihydro-(2,4′-bipyridine)-1′(2′H)-yl]-2-{[5-(trifluoromethyl)thiophen-2-yl]methyl}-1,2,4-triazin-3(2H)-one] | 0.012 |
| Cc1cc(F)ccc1C1=CCN(c2cnn(Cc3ccc(C(F)(F)F)s3)c(=O)n2)C[C@@H]1O [Synthesis Example 30, (R)-5-[4-(4-Fluoro-2-methylphenyl)-5-hydroxy-5,6-dihydropyridin-1(2H)-yl]-2-{[5-(trifluoromethyl)thiophen-2-yl]methyl}-1,2,4-triazin-3(2H)-one] | 0.072 |
| Cc1cccc(C2=CCN(c3cnn(Cc4ccc(C(F)(F)F)s4)c(=O)n3)C[C@@H]2O)n1 [Synthesis Example 31, (R)-5-[5′-Hydroxy-6-methyl-5′,6′-dihydro-(2,4′-bipyridin)-1′(2′H)-yl]-2-{[5-(trifluoromethyl)thiophen-2-yl]methyl}-1,2,4-triazin-3 (2H)-one] | 0.12 |
